Experimental data from EP4534542A1, “THIOSUGAR BASED ISOTHIOCYANATES AND USES THEREOF” (Universidad de Sevilla, priority 2023, dated 2025).
Like-named read-outs stand apart in the source and are kept apart here.

Columns and labels:
[1] = test system: A549 (human lung adenocarcinoma cells); test: Cell viability assay (resazurin), cytotoxic activity against solid tumours; type: cell-based; conditions: for IC50: Homo sapiens, read-out: IC50 A549 (Lung adenocarcino ma); for S.I. A549 (Selectivity Index): IC50 HaCaT divided by IC50 A549, mean of independent experiments
Protocol: (§1) Cells were grown in Dulbecco's Modified Eagle's Medium (DMEM) supplemented with 100 U/mL penicillin, 100 µg/mL streptomycin and 10% fetal bovine serum. HL60 cell line (acute myeloid leukaemia, AML) was obtained from ATCC. It was cultured in IMDM medium supplemented with 100 U/mL penicillin, 100 µg/mL streptomycin and 10% fetal bovine serum. U937 (AML) and Jurkat cells (ALL) were obtained from DMSZ, Braunschweig, Germany, and ATCC, respectively. They were cultivated in RPMI medium, supplemented with 100 U/mL penicillin, 100 µg/mL streptomycin and 10% fetal bovine serum. […] All cell lines were cultured at 37 ° C with 5% CO2 in a humidified incubator. Cell culture reagents were purchased from Biowest. Exponentially growing cells (3000-6000 cells per well) were seeded in 96-well plates. After 24 hours, cells were treated with the drugs for 72 hours. The cell viability was then estimated with the resazurin assay, a colorimetric technique based on the capability of viable cells to reduce the blue reagent resazurin to the pink-soluble product resorufin. The amount of resorufin produced is proportional to the number of viable cells. Briefly, cells were washed once with phosphate buffered saline (PBS) and 150 µL resazurin (20 µg/mL in medium) was added to each well. […] Cell viability was calculated as a percentage compared to non-treated cells. The results were expressed as the means ± standard error of the mean (SEM). All data are from at least three independent experiments. The selectivity index (S.I.) values were calculated over each cancer cell line as the mean of the IC50 value in the non-malignant cell line (HaCaT) by the IC50 in the respective cancer cell line obtained in each independent experiment.

[2] = test system: T24 (human bladder cancer cells); test: as above; type: cell-based; conditions: for IC50: Homo sapiens, read-out: IC50 T24 (Bladder cancer); for S.I. T24 (Selectivity Index): IC50 HaCaT divided by IC50 T24, mean of independent experiments
Protocol: as §1

[3] = test system: MeWo (human melanoma cells); test: as above; type: cell-based; conditions: for IC50: Homo sapiens, MeWo, read-out: IC50 MeWo (Melanoma; BRAF WT); for S.I. MeWo (Selectivity Index): IC50 HaCaT divided by IC50 MeWo, mean of independent experiments
Protocol: as §1

[4] = test system: HaCaT cells; test: Cell viability assay (resazurin), cytotoxicity in non-malignant cells; type: cell-based, human; conditions: Homo sapiens, HaCaT, read-out: IC50 HaCaT (Non-malignant keratinocyte)
Protocol: Cells were grown in Dulbecco's Modified Eagle's Medium (DMEM) supplemented with 100 U/mL penicillin, 100 µg/mL streptomycin and 10% fetal bovine serum. HL60 cell line (acute myeloid leukaemia, AML) was obtained from ATCC. It was cultured in IMDM medium supplemented with 100 U/mL penicillin, 100 µg/mL streptomycin and 10% fetal bovine serum. U937 (AML) and Jurkat cells (ALL) were obtained from DMSZ, Braunschweig, Germany, and ATCC, respectively. They were cultivated in RPMI medium, supplemented with 100 U/mL penicillin, 100 µg/mL streptomycin and 10% fetal bovine serum. […] All cell lines were cultured at 37 ° C with 5% CO2 in a humidified incubator. Cell culture reagents were purchased from Biowest. Exponentially growing cells (3000-6000 cells per well) were seeded in 96-well plates. After 24 hours, cells were treated with the drugs for 72 hours. The cell viability was then estimated with the resazurin assay, a colorimetric technique based on the capability of viable cells to reduce the blue reagent resazurin to the pink-soluble product resorufin. The amount of resorufin produced is proportional to the number of viable cells. Briefly, cells were washed once with phosphate buffered saline (PBS) and 150 µL resazurin (20 µg/mL in medium) was added to each well. The plates were incubated for 3 hours at 37 °C, 5% CO2, and finally optical densities were measured at 540 and 620 nm with a multiwell plate spectrophotometer reader (Multiskan EX Labsystems). Cell viability was calculated as a percentage compared to non-treated cells. The results were expressed as the means ± standard error of the mean (SEM). All data are from at least three independent experiments.

[5] = test system: Jurkat (Acute lymphoblastic leukaemia); test: Antileukemic activity, cell viability (CCK-8 Cell Counting Kit); type: cell-based; conditions: Homo sapiens, 18 h incubation, compounds 0 - 100 µM, read-out: IC50 Cancer cells Jurkat (Acute lymphoblastic leukaemia)
Protocol: (§2) HaCaT cells (human keratinocytes, reference control), A549 (human lung adenocarcinoma cells), MeWo (human melanoma cells) and T24 (human bladder cancer cells) were purchased from Cell Lines Service (CLS). Cells were grown in Dulbecco's Modified Eagle's Medium (DMEM) supplemented with 100 U/mL penicillin, 100 µg/mL streptomycin and 10% fetal bovine serum. HL60 cell line (acute myeloid leukaemia, AML) was obtained from ATCC. It was cultured in IMDM medium supplemented with 100 U/mL penicillin, 100 µg/mL streptomycin and 10% fetal bovine serum. U937 (AML) and Jurkat cells (ALL) were obtained from DMSZ, Braunschweig, Germany, and ATCC, respectively. They were cultivated in RPMI medium, supplemented with 100 U/mL penicillin, 100 µg/mL streptomycin and 10% fetal bovine serum. OPM-2 cell line (MM), was obtained from DMSZ, Braunschweig, Germany and cultured in RPMI medium supplemented with 100 U/mL penicillin, 100 µg/mL streptomycin, 10% fetal bovine serum and 1X GlutaMAXTM. All cell lines were cultured at 37 ° C with 5% CO2 in a humidified incubator. Cell culture reagents were purchased from Biowest.
(§3) For the leukemic cell lines, the CCK-8 Cell Counting Kit (Dojindo Molecular Technologies) was used according to manufacturers instructions. Briefly, 50.000 cells were seeded in each well of a 96 well plate, and they were treated with increased amounts (0 - 100 µM) of each of the compounds, and incubated for 18 h at 37 °C, 5% CO2. After this period, 7 µl of the CCK-8 reagent were added to each well, and cells were further incubated for 2 h at 37 °C, 5% CO2. OD at 450 nm was obtained using a MultiskanTM GO microplate reader (Thermo Fisher Scientific, Waltham, MA, EE.UU). Cell viability in each condition was normalized to the measurement obtained in the non treated samples (100%), and were represented as average ± standard error of the mean (SEM).

[6] = test system: OPM-2 (Multiple myeloma); test: as above; type: cell-based; conditions: Homo sapiens, 18 h incubation, compounds 0 - 100 µM, read-out: IC50 Cancer cells OPM-2 (Multiple myeloma)
Protocol: as §2, §3

[7] = test system: HL60 (Acute myeloid leukaemia); test: as above; type: cell-based; conditions: Homo sapiens, HL-60; 18 h incubation, compounds 0 - 100 µM; read-out: IC50 Cancer cells HL60 (Acute myeloid leukaemia)
Protocol: as §2, §3

[8] = test system: U937 (Acute myeloid leukaemia); test: as above; type: cell-based; conditions: Homo sapiens, U-937; 18 h incubation, compounds 0 - 100 µM; read-out: IC50 Cancer cells U937 (Acute myeloid leukaemia)
Protocol: as §2, §3

[9] = 72 h treatment, resazurin assay, mean ± SEM

| SMILES | IC50 ([1]; A549, 72 h) | S.I. A549 (Selectivity Index) [1] | IC50 ([2]; 72 h) | S.I. T24 (Selectivity Index) [2] | IC50 ([3]; 72 h) | S.I. MeWo (Selectivity Index) [3] | IC50 ([4]; 72 h) | IC50 [5] | IC50 [6] | IC50 [7] | IC50 [8] | IC50 ([1]; A549, 72 h treatment, resazurin assay, mean ± SEM) | IC50 [2, 9] | IC50 [3, 9] | IC50 [4, 9] |
| --- | --- | --- | --- | --- | --- | --- | --- | --- | --- | --- | --- | --- | --- | --- | --- |
| CC(=O)OC[C@H]1O[C@@H](S(C)(=O)=O)[C@H](OC(C)=O)[C@@H](N=C=S)[C@@H]1OC(C)=O [Compound 19β, Methyl 2,4,6-tri-O-acetyl-3-isothiocyanato-1,3-dideoxy-1-sulfonyl-β-D-glucopyranose] | 98 ± 24 µM | 1.5±0.1 | 51.8 ± 2.7 µM | 2.6±0.3 | 77.1 ± 14.4 µM | 1.9±0.3 | 138 ± 22.5 µM | 37.1 µM | ~48.5 µM | ~24.7 µM | 45.7 µM |  |  |  |  |
| CS[C@@H]1O[C@H](COC(C)=O)[C@@H](OC(C)=O)[C@H](N=C=S)[C@H]1OC(C)=O [Compound 13β, Methyl 2,4,6-tri-O-acetyl-3-isothiocyanato-1,3-dideoxy-1-thio-β-D-glucopyranoside] |  | 1.5±0.2 |  | 1.8±0.2 |  | 1.3±0.0 |  | 18.7 µM | 24.9 µM | ~13 µM | ~24.2 µM | 51.4 ± 9.2 µM | 42 ± 7.5 µM | 55.9 ± 4.8 µM | 70 ± 4.6 µM |
